pKi: −log10 of the molar value.
Tests used:
dopamine receptors = details: prior art, in words; cited from earlier work
σ receptors = details: prior art, in words; cited from earlier work
PCP receptor = PCP receptor binding ([3H]TCP); details: [3H]TCP 5 nM, rat cortex tissue, pH 7.8, 25° C., 30 minutes
Method: (§1) After the decapitation of rats the objective tissues were rapidly removed and each was weighed. Each tissue was homogenized with twenty-fold amount of ice-cold 50 mM […] buffer (pH7.8) homogenized, and centrifuged at 40,000×g for 10 minutes. The supernatant was removed and pellets were then resuspended in the buffer and recentrifuged. The procedure is repeated 3 times. Then these obtained samples were freeze-dried in liquid nitrogen and preserved at -80° C. On the test day the sample was thawed at room temperature and centrifuged at 40,000×g for 10 minutes, the pellets were then suspended in an incubation buffer and used as the receptor preparation. The preparation was added to the mixture containing the labelled ligand and the test drug, and filtered through Whatman GF/C filters and washed to terminate the reaction. Radioactivity on the filters was determined by a liquid scintillation counter and Ki value was calculated.
PCP receptor binding was initiated by the addition of the receptor preparation (cortex tissue, 0.2 mg protein/ml) to a mixture containing 5 nM of [^3 H]TCP and the test compound dissolved in 5 mM Tris-HCl buffer (pH 7.8). Incubation was carried out at 25° C. for 30 minutes. Specific PCP receptor binding was defined as the difference in amount of [^3 H]TCP bound to the tissue in the presence or the absence of 10 μM PCP.

σ receptor = σ receptor binding ([3H]3PPP); details: [3H]3PPP 5 nM, rat cortex tissue, pH 7.8, 25° C., 90 minutes
Method: as §1
Sigma receptor binding was initiated by the addition of the receptor preparation (cortex tissue, 0.7 mg protein/ml) to a mixture containing 5 nM of [^3 H]3PPP [3-hydroxyphenyl-N-(1-propyl)piperidine] and the test compound dissolved in 50 mM Tris-HCl buffer (pH 7.8). Incubation was carried out at 25° C. for 90 minutes. Specific sigma receptor binding was defined as the difference in amount of [^3 H]3PPP bound to the tissue in the presence or the absence of 10 μM haloperidol.

DA2 receptor = biological target: T1, DA2 receptor (Rattus norvegicus, UniProt P61169); assay: DA2 receptor binding ([3H]spiroperidol); details: [3H]spiroperidol 0.2 nM, rat striatal tissue, pH 7.4, 37° C., 10 minutes
T1 construct: receptor preparation (striatal tissue, 0.3 mg protein/ml); from tissue; host or cells: rat striatal membranes
T1 sequence (P61169 whole entry): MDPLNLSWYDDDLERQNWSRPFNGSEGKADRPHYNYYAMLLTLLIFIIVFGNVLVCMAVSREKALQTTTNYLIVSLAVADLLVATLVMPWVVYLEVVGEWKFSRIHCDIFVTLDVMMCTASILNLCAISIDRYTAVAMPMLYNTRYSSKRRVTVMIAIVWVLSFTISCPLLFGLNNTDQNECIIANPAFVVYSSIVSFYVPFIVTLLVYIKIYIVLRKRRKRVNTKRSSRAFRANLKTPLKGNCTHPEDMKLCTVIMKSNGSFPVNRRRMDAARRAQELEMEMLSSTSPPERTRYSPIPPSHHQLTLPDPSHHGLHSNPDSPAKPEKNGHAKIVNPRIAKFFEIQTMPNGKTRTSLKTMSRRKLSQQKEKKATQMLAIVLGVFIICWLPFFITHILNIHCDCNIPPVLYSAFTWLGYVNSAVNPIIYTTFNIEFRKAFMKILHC
Method: as §1
DA2 receptor binding was initiated by the addition of the receptor preparation (striatal tissue, 0.3 mg protein/ml) to a mixture containing 0.2 nM of [^3 H]spiroperidol and the test compound dissolved in 50 mM Tris-HCl buffer containing 100 mM-NaCl and 5 mM-KCl (pH 7.4). Incubation was carried out at 37° C. for 10 minutes. Specific DA2 receptor binding was defined as the difference in amount of [^3 H]spiroperidol bound to the tissue in the presence or the absence of 10 μM haloperidol.

5HT2 receptor = biological target: T2, 5HT2 receptor (Rattus norvegicus, UniProt P14842); assay: 5HT2 receptor binding ([3H]spiroperidol); details: [3H]spiroperidol 1 nM, rat cortex tissue, pH 7.4, 37° C., 15 minutes
T2 construct: receptor preparation (cortex tissue, 0.5 mg protein/ml); from tissue; host or cells: rat cortex membranes
T2 sequence (P14842 whole entry): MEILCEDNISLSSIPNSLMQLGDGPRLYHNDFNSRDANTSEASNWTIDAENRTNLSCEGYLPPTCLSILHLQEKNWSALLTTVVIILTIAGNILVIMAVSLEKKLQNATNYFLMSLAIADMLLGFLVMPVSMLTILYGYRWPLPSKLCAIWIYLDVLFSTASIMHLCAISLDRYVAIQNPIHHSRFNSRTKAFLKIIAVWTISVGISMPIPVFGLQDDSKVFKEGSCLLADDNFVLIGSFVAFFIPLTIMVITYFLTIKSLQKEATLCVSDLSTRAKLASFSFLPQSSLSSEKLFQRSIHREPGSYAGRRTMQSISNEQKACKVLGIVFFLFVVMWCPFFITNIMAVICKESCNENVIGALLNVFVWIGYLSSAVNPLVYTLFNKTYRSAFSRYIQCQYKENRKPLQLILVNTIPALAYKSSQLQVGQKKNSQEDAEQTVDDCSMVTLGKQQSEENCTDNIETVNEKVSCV
Method: as §1
5HT2 receptor binding was initiated by the addition of the receptor preparation (cortex tissue, 0.5 mg protein/ml) to a mixture containing 1 nM of [^3 H]spiroperidol and the test compound dissolved in 50 mM Tris-HCl buffer (pH 7.4). Incubation was carried out at 37° C. for 15 minutes. Specific 5HT2 receptor binding was defined as the difference in amount of [^3 H]spiroperidol bound to the tissue in the presence or the absence of 1 mM serotonin.

Q: For `OC(CCCN1CCN(c2ncc(F)cn2)CC1)c1ccc(F)cc1` (centres unmarked) [BMY 148021], which “affinity to dopamine receptors” value (dopamine receptors) is on record?
A: Its value is “low affinity”.

Q: What about the “affinity to σ receptors” value (σ receptors) of the same compound?
A: Its value is “high affinity”.

Q: With `O=C1CCCN1C(=O)NCCCN1CC=C(c2ccc(C(F)(F)F)cc2)CC1` [I a-2] as the compound, how does the pKi (PCP receptor) read?
A: Its pKi is 4.51.

Q: What about the pKi (σ receptor) of the same compound?
A: Its pKi is 8.39.

Q: What about the pKi (DA2 receptor) of the same compound?
A: The pKi was 5.33.

Q: What about the pKi (5HT2 receptor) of the same compound?
A: Its pKi is 6.26.

Q: Which results are given for `CCCc1ccc(C2=CCN(CCCNC(=O)N3CCCC3=O)CC2)cc1` [I a-3]?
A: pKi (PCP receptor): 4.82; pKi (σ receptor): 8.02; pKi (DA2 receptor): 5.40; pKi (5HT2 receptor): 5.77

Q: With `CC(C)(C)c1ccc(C2=CCN(CCCNC(=O)N3CCCC3=O)CC2)cc1` [I a-6] as the compound, how does the pKi (PCP receptor) read?
A: Its pKi is 4.31.

Q: And the pKi (σ receptor)?
A: Its pKi is 8.57.

Q: What about the pKi (DA2 receptor) of the same compound?
A: Its pKi is 5.66.

Q: And the pKi (5HT2 receptor)?
A: Its pKi is 5.60.

Q: With `CC(C)(C)c1ccc(C2=CCN(CCCC(=O)N3CCCC3=O)CC2)cc1` [I a-8] as the compound, how does the pKi (PCP receptor) read?
A: Its pKi is < 4.21.

Q: What about the pKi (σ receptor) of the same compound?
A: The pKi was 8.89.

Q: What about the pKi (DA2 receptor) of the same compound?
A: Its pKi is 5.92.

Q: And the pKi (5HT2 receptor)?
A: The pKi was 5.54.

Q: Which results are given for `O=C(CCCN1CC=C(c2ccc(C(F)(F)F)cc2)CC1)N1CCCC1=O` [I a-9]?
A: pKi (PCP receptor): 4.48; pKi (σ receptor): 8.21; pKi (DA2 receptor): 5.80; pKi (5HT2 receptor): 5.92

Q: With `CC(C)(C)c1ccc(C2=CCN(CCCNC(=O)N3CCCC3)CC2)cc1` [I a-11] as the compound, how does the pKi (PCP receptor) read?
A: Its pKi is 4.64.

Q: What about the pKi (σ receptor) of the same compound?
A: Its pKi is 8.59.

Q: What about the pKi (DA2 receptor) of the same compound?
A: Its pKi is 5.35.

Q: And the pKi (5HT2 receptor)?
A: Its pKi is 5.36.

Q: With `O=C1CCCN1C(=O)NCCCCCN1CC=C(c2ccc(C(F)(F)F)cc2)CC1` [I a-13] as the compound, how does the pKi (PCP receptor) read?
A: The pKi was 4.59.

Q: And the pKi (σ receptor)?
A: Its pKi is 8.66.

Q: And the pKi (DA2 receptor)?
A: Its pKi is 6.49.

Q: And the pKi (5HT2 receptor)?
A: The pKi was 6.11.

Q: What does the source list for `Cc1ccc(C2=CCN(CCCN(CC(C)C)CC(C)C)CC2)cc1` [I a-24]?
A: pKi (PCP receptor): 4.49; pKi (σ receptor): 8.24; pKi (DA2 receptor): 5.96; pKi (5HT2 receptor): 6.42

Q: With `CNCCCN1CC=C(c2ccc(C(C)(C)C)cc2)CC1` [I a-30, 1-[(3-methylamino)propyl]-4-(4-tert-butylphenyl)-1,2,5,6-tetrahydropyridine] as the compound, how does the pKi (PCP receptor) read?
A: The pKi was < 4.20.

Q: And the pKi (σ receptor)?
A: The pKi was 8.89.

Q: What about the pKi (DA2 receptor) of the same compound?
A: Its pKi is 5.70.

Q: What about the pKi (5HT2 receptor) of the same compound?
A: Its pKi is 5.43.

Q: With `CC(C)(C)c1ccc(C2=CCN(CCCN3CCOCC3)CC2)cc1` [I a-35, 4-[3-{4-(4-tert-butylphenyl)-1,2,5,6-tetrahydropyridin-1-yl}propyl]morpholine] as the compound, how does the pKi (PCP receptor) read?
A: The pKi was 4.74.

Q: And the pKi (σ receptor)?
A: Its pKi is 8.74.

Q: And the pKi (DA2 receptor)?
A: Its pKi is 5.34.

Q: What about the pKi (5HT2 receptor) of the same compound?
A: The pKi was 5.49.

Q: What does the source list for `CC1CCN(CCCN2CC=C(c3ccc(C(C)(C)C)cc3)CC2)CC1` [I a-56]?
A: pKi (PCP receptor): 4.36; pKi (σ receptor): 8.19; pKi (DA2 receptor): 5.35; pKi (5HT2 receptor): 5.05

Q: With `Cc1ccc(C2=CCN(CCCN3CCC(C)CC3)CC2)cc1` [I a-57] as the compound, how does the pKi (PCP receptor) read?
A: Its pKi is 4.36.

Q: And the pKi (σ receptor)?
A: The pKi was 8.20.

Q: And the pKi (DA2 receptor)?
A: Its pKi is 5.62.

Q: And the pKi (5HT2 receptor)?
A: The pKi was 6.85.

Q: Which results are given for `CC(C)(C)c1ccc(C2=CCN(CCCN3CCSCC3)CC2)cc1` [I a-94]?
A: pKi (PCP receptor): 4.57; pKi (σ receptor): 8.89; pKi (DA2 receptor): 5.85; pKi (5HT2 receptor): 5.72

Q: With `Cc1ccc(C2=CCN(CCCN3CCOCC3)CC2)cc1` [I a-101] as the compound, how does the pKi (PCP receptor) read?
A: The pKi was < 4.20.

Q: And the pKi (σ receptor)?
A: The pKi was 9.51.

Q: And the pKi (DA2 receptor)?
A: The pKi was 5.74.

Q: What about the pKi (5HT2 receptor) of the same compound?
A: Its pKi is 5.11.

Q: With `Clc1ccc(C2=CCN(CCCN3CCOCC3)CC2)cc1` [I a-102] as the compound, how does the pKi (PCP receptor) read?
A: The pKi was < 4.15.

Q: What about the pKi (σ receptor) of the same compound?
A: Its pKi is 9.15.

Q: And the pKi (DA2 receptor)?
A: The pKi was 5.49.

Q: And the pKi (5HT2 receptor)?
A: The pKi was 5.24.

Q: With `FC(F)(F)c1ccc(C2=CCN(CCCOc3ccc(Cl)c(Cl)c3)CC2)cc1` [I a-111, 1-{3-(3,4-Dichlorophenoxy)propyl}-4-(4-trifluoromethylphenyl)-1,2,5,6-tetrahydropyridine] as the compound, how does the pKi (PCP receptor) read?
A: The pKi was < 4.20.

Q: And the pKi (σ receptor)?
A: Its pKi is 8.54.

Q: And the pKi (DA2 receptor)?
A: The pKi was 6.20.

Q: What about the pKi (5HT2 receptor) of the same compound?
A: The pKi was 6.41.

Q: For `C[C@@H]1CN(CCCn2c3ccccc3c3ccccc32)C[C@H](C)N1` [rimcazole], which “affinity to dopamine receptors” value (dopamine receptors) is on record?
A: The value was “low affinity”.

Q: What about the “affinity to σ receptors” value (σ receptors) of the same compound?
A: The value was “high affinity”.
